Test [1] has as its target T1, ACK1 (Homo sapiens, UniProt Q07912).
T1 construct: a fusion of an N-terminal (His)6 Tag with amino acids 117 to 489 of ACK1; (His)6 (N); made in house; host or cells: baculovirus infected Hi-5 insect cells
Briefly: ACK1 Enzymatic Assay (PGT/autophosphorylation ELISA). In kind it is biochemical. The protocol:
IC50 values of compounds of the invention may be assessed as follows. The ACK1 kinase assay utilizes a protein expressed in baculovirus infected Hi-5 cells (a fusion of an N-terminal (His)6 Tag with amino acids 117 to 489 of ACK1) purified by affinity chromatography on a Ni-NTA column. The substrate for the reaction is ACK1 itself (autophosphorylation) and poly-Glutamic acid-Tyrosine (PGT (4:1), Sigma catalog #PO275). The PGT is coated to Nunc 96 well plates at 80 μg/mL overnight at 4° C. The morning after coating, the plates are washed twice, and […] reaction buffer (10 mM Hepes, pH 7.6; 20 mM MgCl2; 75 mM NaCl, 0.125% TWEEN20 (polyoxyethylene sorbitan monolaurate); 1 mM DTT) with 5 μM ATP are added to each well. Test compounds are added in […] DMSO, and the reaction is started by addition of […] kinase in assay buffer. The reaction proceeds for 2 h at room temperature. Next, the plates are washed four times, and the level of tyrosine phosphorylation in a given well is quantified by standard ELISA assay utilizing a phosphotyrosine antibody (PY20, Pierce).
Background: ELISA stands for enzyme-linked immunosorbent assay.

In test [2] the target is T2, LCK (Homo sapiens, UniProt P06239).
T2 construct: 15 μL of LCK KD GST (225-509) for a final volume of 40 μL; GST
T2 sequence (P06239 225-509): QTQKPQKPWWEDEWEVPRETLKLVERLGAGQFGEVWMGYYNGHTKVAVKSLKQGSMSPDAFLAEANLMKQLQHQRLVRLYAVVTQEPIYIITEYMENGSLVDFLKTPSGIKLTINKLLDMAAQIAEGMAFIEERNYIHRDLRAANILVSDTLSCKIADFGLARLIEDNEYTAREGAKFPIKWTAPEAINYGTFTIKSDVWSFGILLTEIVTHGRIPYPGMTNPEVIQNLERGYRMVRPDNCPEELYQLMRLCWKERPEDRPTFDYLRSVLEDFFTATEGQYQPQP
Briefly: LCK-Homogeneous Time Resolved Fluorescent (HTRF) Kinase Assay. In kind it is biochemical. The protocol:
LCK-Homogeneous Time Resolved Fluorescent (HTRF) Kinase Assay
The LCK HTRF assay begins with LCK in the presence of ATP phosphorylating the biotinylated peptide Gastrin. The reaction incubates for 90 min. To quench the assay detection reagents are added which both stop the reaction by diluting out the enzyme and chelating the metals due to the presence of EDTA. Once the detection reagents are added the assay incubates for 30 min to allow for equilibration of the detection reagents.
Buffer conditions are as follows: 50 mM HEPES pH 7.5, 50 mM NaCl, 20 mM MgCl2, 5 mM MnCl2, 2 mM DTT, 0.05% BSA.
The assay is quenched and stopped with 160 μL of a detection reagent. Detection reagents are as follows: Buffer made of 50 mM Tris, pH 7.5, 100 mM NaCl, 3 mM EDTA, 0.05% BSA, 0.1% Tween20.
The assay plate is read in either a Discovery or a RubyStar.
(In TR-FRET formats the signal depends on donor and acceptor labels being close together.)

The test system of test [3] is C8 cells. Briefly: ACK1 Cell Based Assay (survival under low serum, Cytotox One). To be noted: ACK1-dependent C8 cells, 0.125% FCS, 20 to 24 h; read-out: ACK1 Cell-based IC50. The protocol:
ACK1 Cell Based Assay The ACK1 cell based assay is designed to find inhibitors of ACK1 kinase activity which would be prime candidates for the development of anticancer drugs. […] After 20 to 24 h incubation at 37° C. and 5% CO2, cell viability is determined using the Cytotox One kit (Promega) according to the manufacturer's instructions.

For 21 compounds, Ki and IC50 results are on record in US7763624B2, “Substituted pyrazolo[3,4-d]pyrimidines as ACK-1 and LCK inhibitors” (Amgen Inc., priority 2005, dated 2010).

Broadly, the Ki is the equilibrium dissociation constant of an inhibitor or competing ligand from its target. High values mean a looser hold on the target, low ones a stronger hold on the target. As usually defined, the IC50 is the concentration needed to halve the response being measured.

T1 sequence (Q07912 117-489): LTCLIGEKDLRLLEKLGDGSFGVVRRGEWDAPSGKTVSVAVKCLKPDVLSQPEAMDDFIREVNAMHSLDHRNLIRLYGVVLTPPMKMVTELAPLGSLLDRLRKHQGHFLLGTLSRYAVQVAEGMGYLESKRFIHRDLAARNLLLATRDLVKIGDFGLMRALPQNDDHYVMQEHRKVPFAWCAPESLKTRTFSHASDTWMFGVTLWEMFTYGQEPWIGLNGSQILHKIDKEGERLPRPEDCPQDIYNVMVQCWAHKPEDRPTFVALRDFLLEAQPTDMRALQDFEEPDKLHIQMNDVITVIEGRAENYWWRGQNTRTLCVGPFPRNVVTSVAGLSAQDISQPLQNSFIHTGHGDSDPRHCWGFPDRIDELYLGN

In the case of “2-(3-(2,6-dimethylphenylamino)-6-(phenylamino)-1H-indazol-1-yl)-1-(4-methylpiperazin-1-yl)ethanone [Compound 70]”, the Ki in test [1] was over 100 nM; in test [2] it was under 10 nM. In addition, the IC50 in test [3] was over 100 nM.

As for “2-(3-(2,6-dimethylphenylamino)-6-(phenylamino)-1H-indazol-1-yl)-1-(piperazin-1-yl)ethanone [Compound 71]”, the Ki in test [1] was over 100 nM; in test [2], under 10 nM. The IC50 in test [3] was over 100 nM.

Consider “2-(3-(2,6-dimethylphenylamino)-6-(phenylamino)-1H-indazol-1-yl)acetic acid [Compound 69]”, for which the values for the inhibition constant (Ki) in test [1] and in test [2] were 10 to 100 nM and under 10 nM, respectively. The IC50 in test [3] was over 100 nM.

Take `C=CCCn1nc(Nc2c(C)cccc2C)c2cnc(Nc3ccccc3)nc21` [Compound 33, 1-(but-3-enyl)-N^3-(2,6-dimethylphenyl)-N^6-phenyl-1H-pyrazolo[3,4-d]pyrimidine-3,6-diamine]: the Ki in test [1] was 10 to 100 nM; in test [2], under 10 nM. In addition, the half-inhibitory concentration (IC50) in test [3] is over 100 nM.

For `Cc1cccc(C)c1Nc1nn(CCC(O)CO)c2nc(Nc3ccccc3)ncc12` (centres unmarked) [Compound 34, 4-(3-(2,6-dimethylphenylamino)-6-(phenylamino)-1H-pyrazolo[3,4-d]pyrimidin-1-yl)butane-1,2-diol], the Ki was 10 to 100 nM in test [1] and under 10 nM in test [2]. Further, the 50% inhibitory concentration (IC50) in test [3] is 10 to 100 nM.

In the case of `Cc1cccc(C)c1Nc1nn(CCC2COCO2)c2nc(Nc3ccccc3)ncc12` (centres unmarked) [Compound 35, 1-(2-(1,3-dioxolan-4-yl)ethyl)-N^3-(2,6-dimethylphenyl)-N^6-phenyl-1H-pyrazolo[3,4-d]pyrimidine-3,6-diamine], the Ki is 10 to 100 nM in test [1] and under 10 nM in test [2]. The IC50 in test [3] is over 100 nM.

Consider `Cc1cccc(C)c1Nc1nn(CCCO)c2nc(Nc3ccccc3)ncc12` [Compound 37, 3-(3-(2,6-dimethylphenylamino)-6-(phenylamino)-1H-pyrazolo[3,4-d]pyrimidin-1-yl)propan-1-ol], for which the Ki in test [1] is 10 to 100 nM; in test [2] it was under 10 nM. The 50% inhibitory concentration (IC50) in test [3] is over 100 nM.

With `Cc1cccc(C)c1Nc1nn(CCCN(C)C)c2nc(Nc3ccccc3)ncc12` [Compound 38, 1-(3-(Dimethylamino)propyl)-N^3-(2,6-dimethylphenyl)-N^6-phenyl-1H-pyrazolo[3,4-d]pyrimidine-3,6-diamine], the inhibition constant (Ki) in test [1] was 10 to 100 nM; in test [2], under 10 nM. In test [3], the IC50 fell in the range of 10 to 100 nM.

Consider `CNCCCn1nc(Nc2c(C)cccc2C)c2cnc(Nc3ccccc3)nc21` [Compound 39, N^3-(2,6-dimethylphenyl)-1-(3-(methylamino)propyl)-N^6-phenyl-1H-pyrazolo[3,4-d]pyrimidine-3,6-diamine], for which the Ki in test [1] was 10 to 100 nM; in test [2], under 10 nM. The half-inhibitory concentration (IC50) in test [3] was over 100 nM.

Turning to `CCN(CC)CCCn1nc(Nc2c(C)cccc2C)c2cnc(Nc3ccccc3)nc21` [Compound 40, 1-(3-(diethylamino)propyl)-N^3-(2,6-dimethylphenyl)-N^6-phenyl-1H-pyrazolo[3,4-d]pyrimidine-3,6-diamine], the Ki in test [1] is 10 to 100 nM; in test [2], under 10 nM. Moreover, in test [3], the IC50 was over 100 nM.

For the compound `Cc1cccc(C)c1Nc1nn(CCCN2CCCC2)c2nc(Nc3ccccc3)ncc12` [Compound 41, N^3-(2,6-dimethylphenyl)-N^6-phenyl-1-(3-(pyrrolidin-1-yl)propyl)-1H-pyrazolo[3,4-d]pyrimidine-3,6-diamine], the results for the Ki in test [1] and in test [2] were 10 to 100 nM and under 10 nM, respectively. For the same compound, in test [3], the half-maximal inhibitory concentration (IC50) was over 100 nM.

As to `Cc1cccc(C)c1Nc1nn(CCC(O)CN(C)C)c2nc(Nc3ccccc3)ncc12` (centres unmarked) [Compound 43, 1-(dimethylamino)-4-(3-(2,6-dimethylphenylamino)-6-(phenylamino)-1H-pyrazolo[3,4-d]pyrimidin-1-yl)butan-2-ol], the Ki in test [1] is 10 to 100 nM; in test [2], under 10 nM. Besides, the IC50 in test [3] was over 100 nM.

On to `CCN(CC)CC(O)CCn1nc(Nc2c(C)cccc2C)c2cnc(Nc3ccccc3)nc21` (centres unmarked) [Compound 44, 1-(diethylamino)-4-(3-(2,6-dimethylphenylamino)-6-(phenylamino)-1H-pyrazolo[3,4-d]pyrimidin-1-yl)butan-2-ol], for which the values for the inhibition constant (Ki) in test [1] and in test [2] were over 100 nM and under 10 nM, respectively. In addition, the IC50 in test [3] is over 100 nM.

On to `Cc1cccc(C)c1Nc1nn(CCC(O)CN2CCCC2)c2nc(Nc3ccccc3)ncc12` (centres unmarked) [Compound 45, 4-(3-(2,6-dimethylphenylamino)-6-(phenylamino)-1H-pyrazolo[3,4-d]pyrimidin-1-yl)-1-(pyrrolidin-1-yl)butan-2-ol], for which the figures for the inhibition constant (Ki) in test [1] and in test [2] were over 100 nM and under 10 nM, respectively. In addition, in test [3], the IC50 is over 100 nM.

As for `Cc1cccc(C)c1Nc1nn(CCC(C)O)c2nc(Nc3ccccc3)ncc12` (centres unmarked) [Compound 46, 4-(3-(2,6-dimethylphenylamino)-6-(phenylamino)-1H-pyrazolo[3,4-d]pyrimidin-1-yl)butan-2-ol], the inhibition constant (Ki) in test [1] was 10 to 100 nM; in test [2], under 10 nM. In test [3], the 50% inhibitory concentration (IC50) is over 100 nM.

Consider `Cc1cccc(C)c1Nc1nn(CCCN2CCCCC2)c2nc(Nc3ccccc3)ncc12` [Compound 48, N^3-(2,6-Dimethyl-phenyl)-N^6-phenyl-1-(3-piperidin-1-yl-propyl)-1H-pyrazolo[3,4-d]pyrimidine-3,6-diamine], for which the Ki in test [1] was over 100 nM; in test [2] it was under 10 nM. Besides, in test [3], the half-inhibitory concentration (IC50) was over 100 nM.

As for `Cc1cccc(C)c1Nc1nn(CCCN2CCCCC2)c2nc(Nc3ccc(N4CCNCC4)cc3)ncc12` [Compound 49, N^3-(2,6-Dimethyl-phenyl)-N^6-(4-piperazin-1-yl-phenyl)-1-(3-piperidin-1-yl-propyl)-1H-pyrazolo[3,4-d]pyrimidine-3,6-diamine], the Ki in test [1] is 10 to 100 nM; in test [2], under 10 nM. Moreover, in test [3], the concentration for half-maximal inhibition (IC50) was over 100 nM.

Regarding `Cc1cccc(C)c1Nc1nn(CCCN2CCCCC2)c2nc(Nc3ccc(N4CCN(C)CC4)cc3)ncc12` [Compound 50, N^3-(2,6-Dimethyl-phenyl)-N^6-[4-(4-methyl-piperazin-1-yl)-phenyl]-1-(3-piperidin-1-yl-propyl)-1H-pyrazolo[3,4-d]pyrimidine-3,6-diamine], the inhibition constant Ki in test [1] was 10 to 100 nM; in test [2], under 10 nM. The concentration for half-maximal inhibition (IC50) in test [3] was in the range of 10 to 100 nM.

In test [2], `COC(C)(C)CCn1nc(Nc2c(C)cccc2C)c2cnc(Nc3ccc(N4CCNCC4)cc3)nc21` [Compound 56, N^3-(2,6-Dimethyl-phenyl)-1-(3-methoxy-3-methylbutyl)-N^6-(4-piperazin-1-yl-phenyl)-1H-pyrazolo[3,4-d]pyrimidine-3,6-diamine] showed a Ki of under 10 nM. Besides, the IC50 in test [3] is under 10 nM.

Turning to `CNc1ncc2c(Nc3c(Cl)cccc3Cl)nn(CCC(C)(C)OC)c2n1` [Compound 83, N^3-(2,6-dichlorophenyl)-1-(3-methoxy-3-methylbutyl)-N^6-methyl-1H-pyrazolo[3,4-d]pyrimidine-3,6-diamine], the Ki in test [1] is over 100 nM; in test [2], under 10 nM.

As to `CNc1ncc2c(Nc3c(Cl)cccc3Cl)nn(CCC(C)(C)OC)c2n1` [Compound 90, N^3-(2,6-dichlorophenyl)-1-(3-methoxy-3-methylbutyl)-N^5-methyl-1H-pyrazolo[3,4-d]pyrimidine-3,6-diamine], in test [3], the half-maximal inhibitory concentration (IC50) was over 100 nM.
